In patent US8927600B2, “Compound for use in the treatment of peripheral neuropathies” (Biocodex, priority 2009, dated 2015):
Entries after “also recorded” stand apart in the source; their conditions may differ.

Key:
[1] = tested on: sensitive neurons extracted from rat embryo dorsal spinal ganglions; experiment: lactate dehydrogenase (LDH) released in the extracellular medium of the co-culture with or without cisplatin; format: cell-based; conditions: 24 hours, FIG. 3
Protocol: (§1) To be more precise, they studied the survival of sensitive neurons extracted from rat embryo dorsal spinal ganglions cultured in the presence of a cytotoxic agent, cisplatin, co-applied with stiripentol.
(§2) The co-culturing, for 5 days, of sensitive neurons (˜5-10% of the cultivated cell population) associated with Schwann cells and fibroblasts (˜95-90% of the cultivated cell population) is carried out in an appropriate medium as described in Hall et al. (1997) J. Neurosci. 17:2775-2784. […]
(§3) The density of the neuritic networks (axons and dendrites) labelled by an anti-β-tubulin antibody (ref T8660, Sigma, France) is then determined by measuring their length, together with the number of cell bodies marked by means of an anti-MAP2 antibody (ref M4403, Sigma, France) as indicated by Gill & Windebank (1998) J. Clin. Invest. […] Also determined is the amount of lactate dehydrogenase (LDH) (Kit de detection (detection kit), ref 1 644 793, Roche) released in the extracellular medium, the amount of which is proportional to the number of cells which are damaged or dead owing to the cisplatin-induced cell lysis, as indicated by Koh & Choi (1987) J Neurosci Methods 20:83-90.

[2] = biological target: CYP3A4 (Homo sapiens, UniProt P08684); conditions: Tran et al. (1997); cited from earlier work
[3] = tested on: sensitive neurons extracted from rat embryo dorsal spinal ganglions; experiment: density of neuritic networks (total neurite length, anti-β-tubulin labelling) in sensitive neuron co-culture with or without cisplatin; format: cell-based; conditions: 24 hours, FIG. 1
Protocol: as §1, §2, §3

[4] = tested on: sensitive neurons extracted from rat embryo dorsal spinal ganglions; experiment: number of cell bodies (anti-MAP2 labelling) in sensitive neuron co-culture with or without cisplatin; format: cell-based; conditions: 24 hours, FIG. 2
Protocol: as §1, §2, §3

[5] = biological target: CYP1A2 (Homo sapiens, UniProt P05177); conditions: Tran et al. (1997); cited from earlier work
[6] = tested on: sensitive neurons extracted from rat embryo dorsal spinal ganglions; experiment: in vitro model of peripheral neuropathy (cisplatin), overall neuroprotective activity; format: cell-based; conditions: stiripentol 1-10 μM versus NGF 5 ng/ml; cisplatin 4.5 μg/ml, 24 hours
Protocol: as §1, §2, §3

[7] = tested on: uptake of gamma-aminobutyric acid (GABA); conditions: cited from earlier work
[8] = in the presence of cisplatin 4.5 μg/ml, stiripentol 1, 3, 10 μM, NGF 5 ng/ml

CYP3A4, sequence (P08684 whole entry): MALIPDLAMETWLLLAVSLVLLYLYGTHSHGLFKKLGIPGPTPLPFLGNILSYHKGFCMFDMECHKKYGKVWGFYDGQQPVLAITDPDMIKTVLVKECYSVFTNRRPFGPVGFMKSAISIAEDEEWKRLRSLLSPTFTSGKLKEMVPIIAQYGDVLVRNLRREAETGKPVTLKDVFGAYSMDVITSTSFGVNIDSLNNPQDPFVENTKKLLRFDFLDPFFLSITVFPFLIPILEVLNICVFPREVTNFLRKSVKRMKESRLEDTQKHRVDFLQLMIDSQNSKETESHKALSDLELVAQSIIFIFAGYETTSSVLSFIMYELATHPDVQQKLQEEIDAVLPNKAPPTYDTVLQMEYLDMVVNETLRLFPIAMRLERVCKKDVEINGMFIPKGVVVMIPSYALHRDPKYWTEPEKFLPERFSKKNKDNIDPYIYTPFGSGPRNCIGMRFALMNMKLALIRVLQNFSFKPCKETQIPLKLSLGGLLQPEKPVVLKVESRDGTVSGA
CYP1A2, sequence (P05177 whole entry): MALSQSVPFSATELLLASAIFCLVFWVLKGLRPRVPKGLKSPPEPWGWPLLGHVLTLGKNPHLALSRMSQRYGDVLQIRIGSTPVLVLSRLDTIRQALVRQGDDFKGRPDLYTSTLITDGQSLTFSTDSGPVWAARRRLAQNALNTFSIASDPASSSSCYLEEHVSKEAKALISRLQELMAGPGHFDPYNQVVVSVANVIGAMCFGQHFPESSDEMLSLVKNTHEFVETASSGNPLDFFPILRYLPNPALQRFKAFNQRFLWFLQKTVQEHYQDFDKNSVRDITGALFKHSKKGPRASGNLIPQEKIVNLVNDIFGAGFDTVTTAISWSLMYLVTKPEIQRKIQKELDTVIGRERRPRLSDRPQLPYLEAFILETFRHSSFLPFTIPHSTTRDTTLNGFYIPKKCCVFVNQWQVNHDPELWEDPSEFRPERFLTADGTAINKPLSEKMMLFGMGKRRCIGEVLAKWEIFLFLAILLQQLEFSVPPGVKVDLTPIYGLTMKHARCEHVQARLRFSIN

SMILES | cell release of LDH [1, 8] | inhibition of CYP3A4 [2] | density of the neuritic networks (total length of the neurites) [3, 8] | number of neuronal cell bodies [4, 8] | inhibition of CYP1A2 [5] | neuroprotective activity compared with NGF [6] | inhibition of the uptake of gamma-aminobutyric acid (GABA) [7] | effect of cisplatin on cell lysis (LDH release) ([1]; cisplatin 4.5 μg/ml alone) | effect of cisplatin on the density of the neuritic networks ([3]; cisplatin 4.5 μg/ml alone) | effect of cisplatin on the cell bodies ([4]; cisplatin 4.5 μg/ml alone)
CC(C)(C)C(O)/C=C/c1ccc2c(c1)OCO2 (stereo not shown) [stiripentol, 4,4-dimethyl-1-[(3,4-methylenedioxy)-phenyl]-1-penten-3-ol] | neuroprotective effect | inhibitor | reduce the decrease in the density of the neuritic networks | reduce the decrease | inhibitor | neuroprotective effect equivalent to that of NGF; also recorded: neuroprotective activity of the same order as that of NGF | inhibits the uptake of gamma-aminobutyric acid (GABA) |  |  | 
N.N.[Cl][Pt][Cl] [cisplatin] |  |  |  |  |  |  |  | cell lysis | reduction in the density of the neuritic networks | degeneration of the cell bodies
